Measurements reported in patent publication US12404268B2, “2-heteroaryl aminoquinazolinone derivative” (Sumitomo Pharma Co., Ltd., priority 2020, dated 2025).

Tested on: neurons induced to differentiate from SCN1A gene deficient human iPS cells
Experiment: Test for measuring hyperexcitation suppression activity (spontaneous calcium oscillation frequency)
Type: cell-based
Conditions: Homo sapiens, Neuron; @0.1 μM; read-out: inhibition rate
Description: Test for Measuring Hyperexcitation Suppression Activity Using Neurons Induced to Differentiate from SCN1A Gene Deficient Human iPS Cells
(1) Induction of Differentiation from Human iPS cells to Neurons
Half of the culture solution was exchanged once every 3 to 4 days.
(2) Fluorescent Calcium Probe Treatment, Addition of Compound, and Evaluation of Intracellular Calcium Concentration
Half of the culture solution was removed on day 60 from induction of differentiation or thereafter. A medium for measurement comprising a fluorescent calcium probe (Molecular Device, product name: FLIPR Calcium 6 Assay Bulk Kit, cat #R8191) was added at an amount equal to the remaining medium. The culture was left standing for 30 minutes and subjected to measurement.
The test compounds were serially diluted with a dimethyl sulfoxide (DMSO) solution so that the final concentration would be 0.1 to 100 μM to prepare a concentrate with a concentration that is 6-fold of the final concentration.
The intensity of fluorescence of a calcium probe was measured over time with FDSS7000EX (Hamamatsu Photonics) to evaluate the change in intracellular calcium concentrations. First, the intensity of fluorescence was measured for 2 minutes. The compound solutions were then added using FDSS7000EX for an additional 8 minute measurement of fluorescence intensity. The frequency of spontaneous calcium oscillation was quantified as an indicator of nerve excitation. With the frequency for 2 minutes before the addition of the compound solutions as 100%, the ratio of frequency for the last 2 minutes after addition of the compound solutions was calculated.

Structure (SMILES)	inhibition at 0.1 µM [%]
Cc1ccc(F)cc1-n1c(Nc2cccnc2)nc2ccc(C#N)cc2c1=O [Example 104, 3-(5-fluoro-2-methylphenyl)-4-oxo-2-(pyridin-3-ylamino)-3,4-dihydroquinazoline-6-carbonitrile]	29
Cc1cccc(-n2c(Nc3cccnc3)nc3ccc(F)cc3c2=O)c1 [Example 106]	17
Cc1ccccc1-n1c(Nc2cccnc2)nc2ccc(F)cc2c1=O [Example 107, 6-fluoro-2-(pyridin-3-ylamino)-3-(o-tolyl)quinazolin-4(3H)-one]	89
O=c1c2cc(F)ccc2nc(Nc2cccnc2)n1-c1ccccc1F [Example 108, 6-fluoro-3-(2-fluorophenyl)-2-(pyridin-3-ylamino)quinazolin-4(3H)-one]	62
O=c1c2cc(F)ccc2nc(Nc2cncc(F)c2)n1-c1ccccc1F [Example 111, 6-fluoro-3-(2-fluorophenyl)-2-((5-fluoropyridin-3-yl)amino)quinazolin-4(3H)-one]	35
N#Cc1ccc2nc(Nc3cncc(F)c3)n(-c3ccccc3)c(=O)c2c1 [Example 112, 2-((5-fluoropyridin-3-yl)amino)-4-oxo-3-phenyl-3,4-dihydroquinazoline-6-carbonitrile]	32

Same assay, conditions: Homo sapiens, Neuron; @1 μM; read-out: inhibition rate

Structure (SMILES)	inhibition at 1 µM [%]
CN1[C@@H]2CC[C@H]1C[C@@H](n1c(Nc3cccnc3)nc3ccccc3c1=O)C2 [Example 79]	47
C[C@]1(N)CC[C@@H](n2c(Nc3cccnc3)nc3ccc(F)cc3c2=O)CC1 [Example 89]	20
O=c1c2ccccc2nc(Nc2ccc3cnoc3c2)n1-c1ccccc1 [Example 94]	27
O=c1c2ccccc2nc(Nc2ccc3ncoc3c2)n1-c1ccccc1 [Example 98]	51
Cc1ccc(-n2c(Nc3cccnc3)nc3ccc(C#N)cc3c2=O)c(Cl)c1 [Example 103]	84
Cc1ccc(-n2c(Nc3cccnc3)nc3ccc(F)cc3c2=O)cc1 [Example 105, 6-fluoro-2-(pyridin-3-ylamino)-3-(p-tolyl)quinazolin-4(3H)-one]	100
N#Cc1ccc2nc(Nc3cccnc3)n(-c3ccccc3F)c(=O)c2c1 [Example 110]	66
N#Cc1ccc2nc(Nc3cncc(F)c3)n(-c3ccccc3F)c(=O)c2c1 [Example 113, 3-(2-fluorophenyl)-2-((5-fluoropyridin-3-yl)amino)-4-oxo-3,4-dihydroquinazoline-6-carbonitrile]	91
O=c1c2cccc(F)c2nc(Nc2cccnc2)n1-c1ccccc1 [Example 115]	81
O=c1c2ccccc2nc(Nc2cccnc2)n1C12CCN(CC1)CC2 [Example 119]	20
Cc1ccccc1-n1c(Nc2cccnc2)nc2cccc(F)c2c1=O [Example 120]	69
Cc1ccccc1-n1c(Nc2cccnc2)nc2cc(F)ccc2c1=O [Example 121]	28
Cc1ccccc1-n1c(Nc2cccnc2)nc2c(F)cccc2c1=O [Example 122]	61
O=c1c2cc(F)ccc2nc(Nc2cccnc2)n1-c1cccc(F)c1 [Example 123]	56
O=c1c2cc(F)ccc2nc(Nc2cccnc2)n1-c1ccc(F)cc1 [Example 124]	32
Cc1ccnc(Nc2nc3ccc(F)cc3c(=O)n2-c2ccccc2)c1 [Example 125]	29

Structure (SMILES)	inhibition at 1 µM [%]
O=c1c2cc(F)ccc2nc(Nc2cc(F)ccn2)n1-c1ccccc1 [Example 127, 6-fluoro-2-((4-fluoropyridin-2-yl)amino)-3-phenylquinazolin-4(3H)-one]	96
O=c1c2cc(F)ccc2nc(Nc2ccc(F)cn2)n1-c1ccccc1 [Example 128]	69
O=c1c2cc(F)ccc2nc(Nc2cccc(F)n2)n1-c1ccccc1 [Example 129]	50
COc1cccc(Nc2nc3ccc(F)cc3c(=O)n2-c2ccccc2)n1 [Example 130]	44
Cc1cnccc1Nc1nc2ccc(F)cc2c(=O)n1-c1ccccc1 [Example 132]	38
COc1cccc(-n2c(Nc3cccnc3)nc3ccc(F)cc3c2=O)c1 [Example 133]	51
O=c1c2cc(F)ccc2nc(Nc2cccnc2)n1-c1cccc(Cl)c1 [Example 134]	56
O=c1c2cc(F)ccc2nc(Nc2cccnc2)n1-c1ccc(Cl)cc1 [Example 135]	24
Cc1ccc(Nc2nc3ccc(F)cc3c(=O)n2-c2ccccc2)nc1 [Example 137, 6-fluoro-2-((5-methylpyridin-2-yl)amino)-3-phenylquinazolin-4(3H)-one]	85
Cc1cccc(Nc2nc3ccc(F)cc3c(=O)n2-c2ccccc2)n1 [Example 138]	70
O=c1c2cc(F)ccc2nc(Nc2ccncc2F)n1-c1ccccc1 [Example 140]	46
O=c1c2cc(F)ccc2nc(Nc2ccnc(F)c2)n1-c1ccccc1 [Example 141, 6-fluoro-2-((2-fluoropyridin-4-yl)amino)-3-phenylquinazolin-4(3H)-one]	97
COc1ccccc1-n1c(Nc2cccnc2)nc2ccc(F)cc2c1=O [Example 142, 6-fluoro-3-(2-methoxyphenyl)-2-(pyridin-3-ylamino)quinazolin-4(3H)-one]	86
COc1ccc(-n2c(Nc3cccnc3)nc3ccc(F)cc3c2=O)cc1 [Example 143]	45
O=c1c2cc(F)ccc2nc(Nc2cccnc2)n1-c1ccccc1Cl [Example 145, 3-(2-chlorophenyl)-6-fluoro-2-(pyridin-3-ylamino)quinazolin-4(3H)-one]	100

Same assay, conditions: Homo sapiens, Neuron; @10 μM; read-out: inhibition rate

Structure (SMILES)	inhibition at 10 µM [%]
CN1CC[C@H](n2c(Nc3cccnc3)nc3ccccc3c2=O)C1 [Example 77]	26
CN1CCC(n2c(Nc3cccnc3)nc3ccccc3c2=O)CC1 [Example 78]	100
CN1[C@@H]2CC[C@H]1C[C@@H](n1c(Nc3cccnc3)nc3ccc(F)cc3c1=O)C2 [Example 80]	49
CN1CCC[C@H](n2c(Nc3cccnc3)nc3ccc(F)cc3c2=O)C1 [Example 81]	35
CN1CC[C@H](n2c(Nc3cccnc3)nc3ccc(F)cc3c2=O)C1 [Example 82]	17
CN1CC2(CC(n3c(Nc4cccnc4)nc4ccccc4c3=O)C2)C1 [Example 83]	96
C[C@]1(N)CC[C@H](n2c(Nc3cccnc3)nc3ccc(F)cc3c2=O)CC1 [Example 84]	96
CN1[C@@H]2CC[C@H]1C[C@H](n1c(Nc3cccnc3)nc3ccc(F)cc3c1=O)C2 [Example 85]	59
N#Cc1ccc2nc(Nc3ccccn3)n(-c3ccccc3)c(=O)c2c1 [Example 88]	95
Cn1cnc2c(Nc3nc4ccccc4c(=O)n3-c3ccccc3)cccc21 [Example 93]	53
O=c1c2ccccc2nc(Nc2cccc3ocnc23)n1-c1ccccc1 [Example 99]	94
CN1CCC[C@@H](n2c(Nc3cccnc3)nc3ccc(F)cc3c2=O)C1 [Example 100]	100
CN1CCC(n2c(Nc3cccnc3)nc3ccc(F)cc3c2=O)CC1 [Example 101]	6
COc1ccc(-n2c(Nc3cccnc3)nc3ccc(C#N)cc3c2=O)c(C)c1 [Example 102, 3-(4-methoxy-2-methylphenyl)-4-oxo-2-(pyridin-3-ylamino)-3,4-dihydroquinazoline-6-carbonitrile]	92
O=c1c2cc(F)ccc2nc(Nc2ncccc2F)n1-c1ccccc1 [Example 126]	80
O=c1c2cc(F)ccc2nc(Nc2ccncc2)n1-c1ccccc1 [Example 131]	100
Cc1cc(Nc2nc3ccc(F)cc3c(=O)n2-c2ccccc2)ccn1 [Example 139]	100
O=c1c2cc(Cl)ccc2nc(Nc2ccncn2)n1-c1ccccc1 [Example 146]	11

Same assay, conditions: Homo sapiens, Neuron; @100 μM; read-out: inhibition rate

Structure (SMILES)	inhibition at 100 µM [%]
Cc1ccc2c(=O)n(-c3ccccc3)c(Nc3cccnc3)nc2c1 [Example 86]	31
COc1cccc2nc(Nc3cccnc3)n(-c3ccccc3)c(=O)c12 [Example 92]	38
CN1CC[C@@H](n2c(Nc3cccnc3)nc3ccccc3c2=O)C1 [Example 96]	100
CN1CC[C@@H](n2c(Nc3cccnc3)nc3ccc(F)cc3c2=O)C1 [Example 97]	100
COc1cccc2c(=O)n(-c3ccccc3)c(Nc3cccnc3)nc12 [Example 116]	59
O=c1c2c(F)cccc2nc(Nc2cncc(F)c2)n1-c1ccccc1 [Example 117]	71
Cc1cccnc1Nc1nc2ccc(F)cc2c(=O)n1-c1ccccc1 [Example 136]	5
COc1cnccc1Nc1nc2ccc(F)cc2c(=O)n1-c1ccccc1 [Example 144]	16
O=c1c2ccccc2nc(Nc2ccc3oncc3c2)n1-c1ccccc1 [Example 148]	10

Same assay, conditions: Neuron; SCN1A gene deficient human iPS cell-derived neurons; FLIPR Calcium 6, FDSS7000EX; read-out: IC50 (50% inhibitory concentration, frequency of spontaneous calcium oscillation)

Structure (SMILES)	IC50 [nM]
Cc1ccncc1Nc1nc2ccc(Cl)cc2c(=O)n1-c1ccccc1 [Example 147]	2700
